Assay [1] deals with Chenopodium album. The experiment in a line: Post-emergence herbicidal activity against Chenopodium album seedlings assessed as plant growth inhibition at 75 g ai/ha measured 15 days after compound treatment under greenhouse conditions. It is filed as functional. Particulars: 360 h, read-out: GI.
Assay [2] has as its system Chenopodium album. The experiment in a line: Post-emergence herbicidal activity against Chenopodium album seedlings assessed as plant growth inhibition at 37.5 g ai/ha measured 15 days after compound treatment under greenhouse conditions. It is filed as functional. Particulars: 360 h, read-out: GI.
For assay [3], the system named is Chenopodium album. The experiment in a line: Post-emergence herbicidal activity against Chenopodium album seedlings assessed as plant growth inhibition at 150 g ai/ha measured 15 days after compound treatment under greenhouse conditions. The format is functional. The conditions noted are these: 360 h, read-out: GI.
For assay [4], the system named is Amaranthus retroflexus. The experiment in a line: Post emergence herbicidal activity against Amaranthus retroflexus seedlings assessed as plant growth inhibition at 75 g ai/ha measured 15 days after compound treatment under greenhouse conditions. Particulars: 360 h, read-out: GI. The format is functional.
Assay [5] concerns Amaranthus retroflexus. The experiment in a line: Post emergence herbicidal activity against Amaranthus retroflexus seedlings assessed as plant growth inhibition at 37.5 g ai/ha measured 15 days after compound treatment under greenhouse conditions. It is filed as functional. The conditions noted are these: 360 h, read-out: GI.
Assay [6] deals with Amaranthus retroflexus. The experiment in a line: Post emergence herbicidal activity against Amaranthus retroflexus seedlings assessed as plant growth inhibition at 150 g ai/ha measured 15 days after compound treatment under greenhouse conditions. The format is functional. The conditions noted are these: 360 h, read-out: GI.
Assay [7] relates to Brassica juncea. The assay can be described thus: Post-emergence herbicidal activity against Brassica juncea seedlings assessed as plant growth inhibition at 75 g ai/ha measured 15 days after compound treatment under greenhouse conditions. The format is functional. The conditions noted are these: 360 h, read-out: GI.
Assay [8] concerns Brassica juncea. The assay can be described thus: Post-emergence herbicidal activity against Brassica juncea seedlings assessed as plant growth inhibition at 37.5 g ai/ha measured 15 days after compound treatment under greenhouse conditions. The format is functional. The conditions noted are these: 360 h, read-out: GI.
Assay [9] deals with Brassica juncea. The assay can be described thus: Post-emergence herbicidal activity against Brassica juncea seedlings assessed as plant growth inhibition at 150 g ai/ha measured 15 days after compound treatment under greenhouse conditions. The conditions noted are these: 360 h, read-out: GI. It is filed as functional.
The subject of assay [10] is Setaria faberi. The assay can be described thus: Post-emergence herbicidal activity against Setaria faberi (Giant Foxtail) seedlings assessed as plant growth inhibition at 75 g ai/ha measured 15 days after compound treatment under greenhouse conditions. The format is functional. Particulars: 360 h, read-out: GI.
Assay [11] has as its system Setaria faberi. The experiment in a line: Post-emergence herbicidal activity against Setaria faberi (Giant Foxtail) seedlings assessed as plant growth inhibition at 37.5 g ai/ha measured 15 days after compound treatment under greenhouse conditions. The format is functional. Particulars: 360 h, read-out: GI.
Assay [12] concerns Setaria faberi. The experiment in a line: Post-emergence herbicidal activity against Setaria faberi (Giant Foxtail) seedlings assessed as plant growth inhibition at 150 g ai/ha measured 15 days after compound treatment under greenhouse conditions. The format is functional. Particulars: 360 h, read-out: GI.
In assay [13] the test system is Digitaria sanguinalis. The assay can be described thus: Post-emergence herbicidal activity against Digitaria sanguinalis (hairy crabgrass) seedlings assessed as plant growth inhibition at 75 g ai/ha measured 15 days after compound treatment under greenhouse conditions. The conditions noted are these: 360 h, read-out: GI. The format is functional.
Assay [14] has as its system Digitaria sanguinalis. The experiment in a line: Post-emergence herbicidal activity against Digitaria sanguinalis (hairy crabgrass) seedlings assessed as plant growth inhibition at 37.5 g ai/ha measured 15 days after compound treatment under greenhouse conditions. It is filed as functional. The conditions noted are these: 360 h, read-out: GI.
The test system of assay [15] is Digitaria sanguinalis. The assay can be described thus: Post-emergence herbicidal activity against Digitaria sanguinalis (hairy crabgrass) seedlings assessed as plant growth inhibition at 150 g ai/ha measured 15 days after compound treatment under greenhouse conditions. It is filed as functional. Particulars: 360 h, read-out: GI.
Assay [16] deals with Echinochloa crus-galli. The assay can be described thus: Post emergence herbicidal activity against Echinochloa crus-galli (barnyard grass) seedlings assessed as plant growth inhibition at 75 g ai/ha measured 15 days after compound treatment under greenhouse conditions. The format is functional. The conditions noted are these: 360 h, read-out: GI.
Assay [17] concerns Echinochloa crus-galli. The experiment in a line: Post emergence herbicidal activity against Echinochloa crus-galli (barnyard grass) seedlings assessed as plant growth inhibition at 37.5 g ai/ha measured 15 days after compound treatment under greenhouse conditions. The format is functional. Particulars: 360 h, read-out: GI.
Assay [18] deals with Echinochloa crus-galli. The experiment in a line: Post emergence herbicidal activity against Echinochloa crus-galli (barnyard grass) seedlings assessed as plant growth inhibition at 150 g ai/ha measured 15 days after compound treatment under greenhouse conditions. The format is functional. The conditions noted are these: 360 h, read-out: GI.
Assay [19] concerns the target T1, Protoporphyrinogen oxidase, chloroplastic (Nicotiana tabacum, UniProt O24163).
T1 sequence (O24163 whole entry): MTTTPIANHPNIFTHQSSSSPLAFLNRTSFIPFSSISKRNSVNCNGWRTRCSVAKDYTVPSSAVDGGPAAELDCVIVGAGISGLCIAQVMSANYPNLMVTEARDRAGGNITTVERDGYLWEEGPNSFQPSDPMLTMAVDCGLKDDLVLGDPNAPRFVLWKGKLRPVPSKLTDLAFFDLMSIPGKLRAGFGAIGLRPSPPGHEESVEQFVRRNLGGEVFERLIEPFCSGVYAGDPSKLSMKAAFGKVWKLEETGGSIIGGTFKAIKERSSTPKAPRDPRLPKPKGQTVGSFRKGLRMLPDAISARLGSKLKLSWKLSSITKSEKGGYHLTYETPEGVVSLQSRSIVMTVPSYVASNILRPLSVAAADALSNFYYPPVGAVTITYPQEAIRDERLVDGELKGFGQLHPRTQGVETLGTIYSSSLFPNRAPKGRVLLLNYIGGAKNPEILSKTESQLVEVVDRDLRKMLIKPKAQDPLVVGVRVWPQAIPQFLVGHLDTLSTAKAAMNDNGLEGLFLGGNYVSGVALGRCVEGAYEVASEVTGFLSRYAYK
The assay can be described thus: Inhibition of Nicotiana tabacum (tobacco) recombinant PPO assessed as protoporphyrin IX formation at room temperature by fluorimetric assay.

`COC(=O)Sc1nc2cc(-n3nc(C)n(C(F)F)c3=O)c(F)cc2s1`: the inhibition of growth at 75 g/ha with Chenopodium album [1] was at least 90%; in the assay on Amaranthus retroflexus [4], 50%; in the assay on Brassica juncea [7], 50%; with Setaria faberi [10] it was below 50%; in the assay with Digitaria sanguinalis [13], 60%; with Echinochloa crus-galli [16], 50%. For the same compound, the inhibition of growth at 37.5 g/ha in the assay on Chenopodium album [2] is 50%; in the assay with Amaranthus retroflexus [5], below 50%; in the assay with Brassica juncea [8], below 50%; in the assay on Setaria faberi [11], below 50%; in the assay with Digitaria sanguinalis [14] it was 60%; in the assay with Echinochloa crus-galli [17], 50%. The inhibition of growth at 150 g/ha in the assay with Chenopodium album [3] was at least 90%; in the assay on Amaranthus retroflexus [6] it was at least 90%; in the assay with Brassica juncea [9], at least 90%; with Setaria faberi [12] it was below 50%; in the assay with Digitaria sanguinalis [15], 60%; in the assay on Echinochloa crus-galli [18], 60%. For the same compound, in [19], the Ki worked out at 290 nM.

`COC(=O)CSc1nc2cc(-n3nc(C)n(C(F)F)c3=O)c(F)cc2s1`: the inhibition of growth at 75 g/ha with Chenopodium album [1] was at least 90%; in the assay with Amaranthus retroflexus [4], at least 90%; in the assay with Brassica juncea [7], at least 90%; with Setaria faberi [10], 60%; in the assay on Digitaria sanguinalis [13], below 50%; in the assay with Echinochloa crus-galli [16] it was 60%. Moreover, the inhibition of growth at 37.5 g/ha with Chenopodium album [2] is below 50%; in the assay on Amaranthus retroflexus [5], at least 90%; with Brassica juncea [8] it was 60%; with Setaria faberi [11], 60%; in the assay on Digitaria sanguinalis [14], below 50%; in the assay with Echinochloa crus-galli [17], 60%. The inhibition of growth at 150 g/ha in the assay with Chenopodium album [3], with Amaranthus retroflexus [6], in the assay with Brassica juncea [9], in the assay on Setaria faberi [12], with Digitaria sanguinalis [15] and with Echinochloa crus-galli [18] was at least 90% in each case. Also, the Ki in assay [19] came out at 1080 nM.

Broadly, the Ki is a dissociation constant, usually derived from enzyme kinetics or from competition with a known ligand.
